Assay results from patent US20230248723A1, “PYRROLO[2,3-B]PYRAZINE COMPOUNDS AS CCCDNA INHIBITORS FOR THE TREATMENT OF HEPATITIS B VIRUS (HBV) INFECTION” (Hoffmann-La Roche Inc., priority 2017, published 2023).
Like-named read-outs stand apart in the source and are kept apart here.

How the values were obtained:
Type in all cases: cell-based
[1] = tested on: HBsAg; experiment: HBsAg, multiplex assay, HBV-infected PHH; conditions: for IC50: Hepatitis B virus, read-out: HBsAg IC50 (μM) Median, PHH, patient-derived HBV (GT D)
Protocol: (§1) Fresh primary human hepatocytes (PXB-PHH) harvested from humanized mice (uPA/SCID mice)—herein called PHH—were obtained from PhoenixBio Co., Ltd (Japan). Cells were seeded on a collagen I-coated plate at the following cell density: 35,000 cells/well (384-well), 70,000 cells/well (96-well), or, 400,000 cells/well (24-well) in modified hepatocyte clonal growth medium (dHCGM). dHCGM is a DMEM medium containing 100 U/ml Penicillin, 100 μg/ml Streptomycin, 20 mM Hopes, 44 mM NaHCO3, 15 μg/ml L-proline, 0.25 μg/ml insulin, 50 nM Dexamethazone, 5 ng/ml EGF, 0.1 mM Asc-2P, 2% DMSO and 10% FBS (Ishida et al., 2015). Cells were cultured at 37° C. incubator in a humidified atmosphere with 5% CO2. Culture medium was replaced 24 h post-plating and every 2 days until harvest.
(§2) Following 4 day of maturation with 1 μM MB-1, HLC were incubated with HBV (purified from CHB individuals) at multiplicity of infection (MOI) 10-40 without PEG for 24 hr; virus inoculum was removed the following day. […] Compound treatment in HLC and PHH was started at day 3 post infection. Compound (in powder) was dissolved in DMSO; the final concentration of DMSO added to cells is 1%. Fresh compound was replenished every 2 day until cells were harvested at day 10 (PHH), or day 14 (HLC). Compound effect on HBV and cellular toxicity was measured by multiplex assay (HBsAg, HBeAg, albumin), branched DNA (pgRNA), or digital PCR (cccDNA) and depicted as % of inhibition compared to DMSO control. Graphs were prepared using Spotfire software.
(§3) A custom, Luminex-based multiplex assay that simultaneously measured HBeAg, albumin, and HBsAg was developed by Radix BioSolutions (Georgetown, Tex.). This is a sandwich immunoassay; each capture antibody was coupled with xMAP™ Luminex magnetic beads. The dynamic ranges of analyte detection are as follows: HBeAg (1-316 ng/ml), albumin (3.1-10,000 ng/ml), and HBsAg (0.1-100 ng/ml) with coefficient variant (CV) […]. Samples were read on FlexMAP 3D (Luminex) and analyzed by Genedata software.

[2] = tested on: HBeAg; experiment: HBeAg, multiplex assay, HBV-infected PHH; conditions: for IC50: Hepatitis B virus, read-out: HBeAg IC50 (μM) Median, PHH, patient-derived HBV (GT D)
Protocol: as §1, §2, §3

[3] = tested on: pgRNA; experiment: pgRNA assay (branched DNA), HBV-infected PHH; conditions: patient-derived HBV (GT D), read-out: pgRNA IC50 (μM) Median
Protocol: as §1, §2
Levels of pgRNA in infected cells (96-well plate) were measured using QuantiGene Singleplex 2.0 assay (Affymetrix), a hybridization-based assay that utilizes the xMAP™ Luminex magnetic beads and branched DNA (bDNA) signal amplification technology. The assay is performed in 96-well plate according to manufacturer's recommendation. Briefly, cells were lysed and lysates were incubated with HBV probe sets panel at 50-55° C. for 30 min then stored at −80° C. Signal amplification is achieved via sequential hybridization of PreAmplifier, Amplifier, and Label Probe. After adding Streptavidin phycoerythrin (SAPE) substrate, the signal is read using a FlexMap 3D (Luminex) instrument.

[4] = tested on: cccDNA; experiment: cccDNA assay (digital PCR), HBV-infected PHH; conditions: for IC50: Hepatitis B virus, patient-derived HBV (GT D), read-out: cccDNA IC50 (μM) Median
Protocol: as §1
Following 4 day of maturation with 1 μM MB-1, HLC were incubated with HBV (purified from CHB individuals) at multiplicity of infection (MOI) 10-40 without PEG for 24 hr; virus inoculum was removed the following day. HBV infection in PHH was performed at MOI 40+4% PEG. Compound treatment in HLC and PHH was started at day 3 post infection. Compound (in powder) was dissolved in DMSO; the final concentration of DMSO added to cells is 1%. Fresh compound was replenished every 2 day until cells were harvested at day 10 (PHH), or day 14 (HLC). Compound effect on HBV and cellular toxicity was measured by multiplex assay (HBsAg, HBeAg, albumin), branched DNA (pgRNA), or digital PCR (cccDNA) and depicted as % of inhibition compared to DMSO control. Graphs were prepared using Spotfire software.
HBV-infected cells (in 384- or 96-well plate) were lysed with Cells-to-CT Lysis Reagents according to manufacturer's instruction (Thermo Scientific). To remove excess of RC-DNA, samples were digested with T5 exonuclease (10 U) (New England Biolabs), at 37° C. for 1 hr; enzyme was inactivated by heating the samples at 80° C. for 15 min. DNA samples (1.2 μl) were added into the digital PCR Master Mix (QuantStudio Digital PCR Kit, Thermo Scientific) containing cccDNA primers 5′-[…] (forward), 5′-[…] (reverse), and […] (probe) (Werle-Lapostolle et al., 2004) in a total volume 5 μl, and loaded into dPCR array using AccuFill System (AB). Each sample was loaded into 4 subarrays/256 through-holes. Digital PCR assay was run on QuantStudio 12K Flex (AB) and data was analyzed by Digital Suite Software (AB).

[5] = tested on: albumin (secreted, cellular toxicity marker); experiment: Albumin (in vitro cellular tox marker), multiplex assay, PHH; conditions: human, primary human hepatocytes (PXB-PHH) infected with HBV, patient-derived HBV (GT D), read-out: In vitro tox albumin IC50 (μM) Median
Protocol: as §1, §2, §3

[6] = tested on: HBV DNA; experiment: HBV DNA in culture medium of HBV-infected PHH; conditions: PHH, patient-derived HBV GT D, MOI 40, treatment from day 3, day 10 pi
Description: FIG. 8: Establishment of dPCR assay for cccDNA quantification. […] A 3.2-kb, linearized plasmid HBV is used as a standard curve for relative quantification of HBV DNA by TaqMan-PCR. […] (B) Testing primer & PCR specificity and removal of excess RC-DNA. In contrast to TaqMan-PCR (relative quantification method), digital PCR (dPCR) is an absolute quantification method without the need of standard curve. […] First step—Testing primer and PCR specificity. Serum-derived HBV (contains RC-DNA, devoid of cccDNA) was used as a DNA template for dPCR using 2 sets of primers (for HBV core and cccDNA region) (Werle-Lapostolle et al., 2004). Samples were amplified by dPCR on QuantStudio 12K Flex Real-Time PCR System (AB); 4 subarrays (256 through-holes) were used for each sample. […] Second step—Removal of excess RC-DNA. PHH seeded in 96-well were infected with HBV. At day 6 pi, cell lysates were digested with Plasmid safe, ATP-dependent, DNAse (PSAD), T5 exonuclease, or, T5 exonuclease followed by EcoRI, for 1 hr at 37° C. Samples were amplified by dPCR using cccDNA primers on QuantStudio 12K Flex Real-Time PCR System (AB); 4 subarrays (256 through-holes) were used for each sample. […] Fresh medium and compound was replenished every 2 day. At day 10 pi, culture media were harvested and measured for HBV DNA, HBsAg, and HBeAg. Albumin was used as a surrogate of in vitro tox marker. Cells were lysed and treated with T5 exonuclease, cccDNA was then measured by dPCR on QuantStudio 12K Flex Real-Time PCR System (AB); 4 subarrays (256 through-holes) were used for each sample. […] Cells were treated with compounds at the indicated concentrations starting from day 3 post infection (patient-derived HBV, GT D). Fresh medium and compound was replenished every 2 day. Cells were harvested at day 10 pi; viral markers and albumin were measured from culture medium.
HBV from sera of CHB individuals were purified using OptiPrep™ (Axis-Shield, Norway) density gradient. Briefly, OptiPrep™ stock solution (60%) was diluted to 50% and 10% in PBS; equal volume of each solution was then added into SW41 tubes (BD Biosciences). Linear gradient was performed by placing the tubes on Gradient Master 108™ (Biocomp) at setting: 800, 25 rpm for 30″. Two hundred microliter (200 μl) of serum was overlaid on the top of gradient and samples were centrifuged at 100,000×g for 2 hours at 4° C. […] Fractions containing the peak of HBV DNA were pooled and used as virus inoculum for all infection experiments. All fractions were stored at −80° C. until used.
Fresh primary human hepatocytes (PXB-PHH) harvested from humanized mice (uPA/SCID mice)—herein called PHH—were obtained from PhoenixBio Co., Ltd (Japan).

[7] = PHH, patient-derived HBV GT D, MOI 40, treatment from day 3, day 10 pi

| SMILES | IC50 [1] [µM] | IC50 [2] [µM] | IC50 ([3]; Hepatitis B virus) [µM] | IC50 [3] [µM] | IC50 [4] [µM] | IC50 at 7 days [5] [µM] | effect on HBsAg (other viral markers) [1, 7] | effect on HBeAg (other viral markers) [2, 7] | effect on HBV DNA [6] | effect on cccDNA (other viral markers) ([4]; patient-derived HBV GT D, MOI 40, treatment from day 3, day 10 pi, dPCR) |
| --- | --- | --- | --- | --- | --- | --- | --- | --- | --- | --- |
| CC[C@@H](CO)NC(=O)c1c[nH]c2ncc(C3CC3)nc12 [compound 4] | 0.68 | 0.68 | < 10 | 6.93 | 63.7 | 48 |  |  |  |  |
| O=C(NC1(CO)CCOCC1)c1c[nH]c2ncc(C3CC3)nc12 [compound 6] | 0.75 | 0.49 | 15.7 |  | ≥ 166 | ≥ 166 |  |  |  |  |
| CC(C)(O)C(C)(C)NC(=O)c1c[nH]c2ncc(C3CC3)nc12 [compound 9] | 0.51 | 0.68 |  |  | 49.2 | 21.3 |  |  |  |  |
| C=C1[C@H](CO)[C@@H](O)C[C@@H]1n1cnc2c(=O)[nH]c(N)nc21 [entecavir, reference compound] |  |  |  |  |  |  | no effect | no effect | highly potent | no effect |
| C[C@@H](CO)NC(=O)c1c[nH]c2ncc(C3CC3)nc12 [compound 8] | 1.22 | 2.29 |  |  | 30.8 | 31.9 |  |  |  |  |
| CC(C)(CO)NC(=O)c1c[nH]c2ncc(C3CC3)nc12 [compound 1] | 0.17 | 0.17 | 14.2 |  | 52.7 | 18.7 |  |  |  |  |
| O=C(NC1(CO)CCCC1)c1c[nH]c2ncc(C3CC3)nc12 [compound 2] | 0.68 | 0.68 |  |  | 30.1 | 24.2 |  |  |  |  |
| C[C@H](CO)NC(=O)c1c[nH]c2ncc(C3CC3)nc12 [compound 5] | 5.61 | 2.95 | ≥ 100 |  | 160 | 135 |  |  |  |  |
| CC(C)(O)C(CCO)NC(=O)c1c[nH]c2ncc(C3CC3)nc12 (stereo not drawn) [compound 3] | 3.62 | 3.58 | 12.8 |  | 43.7 | 33.4 |  |  |  |  |
